From PMC3655514 (Acta crystallographica. Section D, Biological …, 2010) come the findings set out here.

Experiment [1] deals with T1, pteridine reductase (TbPTR1) (Trypanosoma brucei, UniProt O76290). In words: crystal structure at […] Å. The experiment is classed as biochemical.
Experiment [2] concerns the target T1, pteridine reductase (TbPTR1). In words: crystal structure at […] Å. The format is biochemical. This is another data set of the same source.
Experiment [3] shares this target. In words: crystal structure at […] Å. The experiment is classed as biochemical. This is another data set of the same source.
Experiment [4] has the same target. The experiment in a line: crystal structure at […] Å. The format is biochemical. This is another data set of the same source.
The target is the same in experiment [5]. In words: crystal structures. The format is binding.

Broadly, the Ki is the dissociation constant of the complex between target and ligand, obtained from inhibition or displacement.

Like-named read-outs stand apart in the source and are kept apart here.

In turn, `COc1ccc(OC)c(CCc2csc3nc(N)nc(N)c23)c1` [PY848, 2,4-diamino-5-[2-(2,5-dimethoxyphenyl)ethyl]thieno[2,3-d]-pyrimidine] showed a Ki in experiment [1] of about 70 nM. For `COc1cc(NCc2ccc3nc(N)nc(N)c3c2C)cc(OC)c1OC` [Trimetrexate, 5-methyl-6-[(3,4,5-trimethoxyphenyl)aminomethyl]quinazoline-2,4-diamine], in experiment [2], the Ki is about 70 nM.

`Nc1nc2[nH]cc(CCc3ccc(C(=O)N[C@@H](CCC(=O)O)C(=O)O)cc3)c2c(=O)[nH]1` [Pemetrexed, 2-{4-[2-(4-amino-2-oxo-3,5,7-triazabicyclo[4.3.0]nona-3,8,10-trien-9-yl)ethyl]benzoyl}aminopentanedioic acid] gave a Ki in experiment [3] of about 30 nM. In experiment [4], `Nc1nc(N)nc(NC2CC2)n1` [Cyromazine, N-cyclopropyl-1,3,5-triazine-2,4,6-triamine] yielded a Ki of over 35000 nM. Consider `NC(=O)c1ccc[n+]([C@@H]2O[C@H](COP(=O)(O)OP(=O)(O)OC[C@H]3O[C@@H](n4cnc5c(N)ncnc54)[C@H](OP(=O)(O)O)[C@@H]3O)[C@@H](O)[C@H]2O)c1` [NADP+], for which, in experiment [5], the “crystal structures (complexes with pemetrexed, trimetrexate, PY848)” value is given as “Crystals of TbPTR1 in a binary complex with oxidized cofactor (NADP^+) were grown”.
